Measured values as given in patent publication US7456197B2, “Pyridinium cationic lipids as gene transfer agents” (The Texas A&M University System, priority 2003, dated 2008).

Assay: Critical (phase transition) temperature Tc by differential scanning calorimetry
Assay type: physicochemical
Conditions: for Tc (phase transition temperature): lipids 21 and 25, DSC, heating rate 5° C./minute; for Tc (critical temperature), Pure: pure lipid
Description: General. Melting points for the diols and the phase transition temperature Tc for the cationic lipids were determined by differential scanning calorimetry (DSC), using a TA-Instruments Q100 DSC, and a heating rate of 5° C./minute. The IR spectra were recorded on a Nicolet Avatar 360 FTIR spectrophotometer in the range 650-4000 cm^−1 using a ZnSe—attenuated total reflectance (ATR) accessory. The compounds were solved in a small amount of solvent (MeOH for the diols, CHCl3 for the lipids), and the resulted solutions were left to evaporate to dryness on the surface of the ZnSe crystals of the ATR accessory. The NMR spectra were recorded at ≈303 K with a Varian Inova spectrometer equipped with a 5 mm indirect detection probe, operating at 500 MHz for ^1H-NMR and at 125 MHz for ^13C-NMR. Chemical shifts are reported as δ values, using TMS as internal standard for proton spectra and the solvent resonance for carbon spectra. Assignments were made based on signal intensity, selective decoupling, COSY (^1H-^1H) and HETCOR (^1H-^13C) sequences. Elemental analyses were performed by combustion, using a Perkin Elmer 2400 Series II CHNS analyser.
Dioleoylphosphatidylethanolamine (DOPE), cholesterol (CHOL), N-(2,3-dioleoyloxypropyl)-N,N,N-trimethylammonium chloride (DOTAP) were commercial products. The purity of the lipids was checked by thin layer chromatography and also by differential scanning calorimetry (DSC), which was also used for determining the critical temperature Tc. For the preparation of the liposomes a protocol optimized for this type of compounds was adopted as follows. The cationic lipid (with or without helper lipid) was dissolved in chloroform/methanol (2/1, v/v) to reach a final concentration of 1 mM for the charged species. From this stock solution 50 μL were aliquoted in a 1 mL tube and the solvent was evaporated in a SpeedVac evaporator, under vacuum, for 1 h. The dried lipid film was prepared by removing the traces of organic solvent in a dessicator, over Drierite®, under vacuum, overnight. The film was hydrated with 500 μL sterile phosphate buffer saline (PBS) the tube was purged with sterile N2, and vortexed for 1 minute. The liposomes were generated by sonicating the tube in a water bath sonicator for 5-30 minutes at 62° C. and at 37° C. for DOTAP. After sonication the preparations were allowed to reach room temperature.
Materials and Methods. Melting points for the diols, acetates and ketals were determined on a Boetius heating plate microscope and are uncorrected. For the cationic lipids 21 and 25 the phase transition temperature Tc was determined by differential scanning calorimetry (DSC), using a TA-Instruments Q100 DSC, and a heating rate of 5° C./minute. The IR spectra were recorded on a Nicolet Avatar 360 FTIR spectrophotometer, in the range 650-4000 cm^−1, using a ZnSe—attenuated total reflectance (ATR) accessory. The compounds were solved in a small amount of solvent (MeOH for the diols, CHCl3 for the esters), the resulted solutions being left to evaporate to dryness on the surface of the ZnSe crystals of the ATR accessory. This technique was imposed by the poor results obtained in transmission mode for some of the compounds, due to the lack of crystallization, hygroscopicity and other problems related with working with KBr pellets. The NMR spectra were recorded at ≈303 K with a Varian Gemini 300BB spectrometer operating at 300 MHz for ^1H and at 75 MHz for ^13C. Chemical shifts are reported as δ values, using TMS as internal standard for proton spectra and the solvent resonance for carbon spectra: 77.00 ppm in CDCl3, 39.50 ppm in DMSO-d6, the line from 123.50 ppm in pyridine-d5, 62.80 ppm in nitromethane-d3, 30.10 ppm in dimethylformamide-d7. Assignments were made based on signal intensity, selective decoupling and COSY (^1H-^1H) and HETCOR (^1H-^13C) sequences. Nitrogen elemental analysis was performed by combustion, mixing the samples with small amounts of quartz sand.

| Compound | Tc (phase transition temperature) [°C] | Tc (critical temperature), Pure [°C] | Tc (critical temperature), With cholesterol (1:1 molar ratio) [°C] |
| --- | --- | --- | --- |
| CCCCCCCC/C=C\CCCCCCCC(=O)OCC(COC(=O)CCCCCCC/C=C\CCCCCCCC)[n+]1c(C)cc(C)cc1C.[O-][Cl+3]([O-])([O-])[O-] [Lipid 25AaO, 1-(1,3-Dioleoyloxypropane-2-yl)-2,4,6-trimethylpyridinium perchlorate] | 48 |  |  |
| CCCCCCCCCCCCCCCC(=O)OCC(C[n+]1c(C)cc(C)cc1C)OC(=O)CCCCCCCCCCCCCCC.F[P-](F)(F)(F)(F)F (stereo not drawn) [Lipid 3APal, 1-(2,3-dipamitoyloxypropyl)-2,4,6-trimethylpyridinium hexafluorophosphate] |  | 123.5 | 114.0 |
| CCCCCCCCCCCCCCCC(=O)OCC(COC(=O)CCCCCCCCCCCCCCC)[n+]1c(C)cc(C)cc1C.F[P-](F)(F)(F)(F)F [Lipid 5APal, 1-(1,3-dipamitoyloxypropane-2-yl)-2,4,6-trimethylpyridinium hexafluorophosphate] |  | 75.5 | 61.0 |
| CCCCCCCCCCCC(=O)OCC(COC(=O)CCCCCCCCCCC)[n+]1c(C)cc(C)cc1C.F[P-](F)(F)(F)(F)F [Lipid 5ALau, 1-(1,3-dilauroyloxypropane-2-yl)-2,4,6-trimethylpyridinium hexafluorophosphate] |  | 58.2 | 41.9 |
| CCCCCCCC/C=C\CCCCCCCC(=O)OCC(COC(=O)CCCCCCC/C=C\CCCCCCCC)[n+]1c(C)cc(C)cc1C.F[B-](F)(F)F [Lipid 25AbO, 1-(1,3-Dioleoyloxypropane-2-yl)-2,4,6-trimethylpyridinium tetrafluoroborate] | 43 |  |  |
| CCCCCCCCCC(=O)Oc1ccc(CC[n+]2c(C)cc(C)cc2C)cc1OC(=O)CCCCCCCCC.F[P-](F)(F)(F)(F)F [Lipid 7ACpc, 1-(3,4-didecanoyloxyphenylethyl)-2,4,6-trimethylpyridinium hexafluorophosphate] |  | 140.0 | 129.2 |
| CCCCCCCCCCCCCCCC(=O)OCC(C[n+]1c(C)cc(C)cc1C)OC(=O)CCCCCCCCCCCCCCC.[O-][Cl+3]([O-])([O-])[O-] (stereo not drawn) [Lipid 21AaP, 1-(2,3-Dipamitoyloxypropyl)-2,4,6-trimethylpyridinium perchlorate] | 106 |  |  |
| CCCCCCCC/C=C\CCCCCCCC(=O)OCC(C[n+]1c(C)cc(C)cc1C)OC(=O)CCCCCCC/C=C\CCCCCCCC.[O-][Cl+3]([O-])([O-])[O-] (stereo not drawn) [Lipid 21AaO, 1-(2,3-Dioleoyloxypropyl)-2,4,6-trimethylpyridinium perchlorate] | 57 |  |  |
| CCCCCCCCCCCCCCCCCC(=O)OCC(C[n+]1c(C)cc(C)cc1C)OC(=O)CCCCCCCCCCCCCCCCC.F[B-](F)(F)F (stereo not drawn) [Lipid 21AbS, 1-(2,3-Distearoyloxypropyl)-2,4,6-trimethylpyridinium tetrafluoroborate] | 103 |  |  |
| CCCCCCCCCCCCCCCC(=O)OCC(COC(=O)CCCCCCCCCCCCCCC)[n+]1c(C)cc(C)cc1C.[O-][Cl+3]([O-])([O-])[O-] [Lipid 25AaP, 1-(1,3-Dipamitoyloxypropane-2-yl)-2,4,6-trimethylpyridinium perchlorate] | 66 |  |  |
| CCCCCCCC/C=C\CCCCCCCC(=O)Oc1ccc(CC[n+]2c(C)cc(C)cc2C)cc1OC(=O)CCCCCCC/C=C\CCCCCCCC.F[P-](F)(F)(F)(F)F [Lipid 7AOle, 1-(3,4-dioleoyloxyphenylethyl)-2,4,6-trimethylpyridinium hexafluorophosphate] |  | 106.8 | 97.3 |
| CCCCCCCCCCCC(=O)OCC(C[n+]1c(C)cc(C)cc1C)OC(=O)CCCCCCCCCCC.F[P-](F)(F)(F)(F)F (stereo not drawn) [Lipid 3ALau, 1-(2,3-dilauroyloxypropyl)-2,4,6-trimethylpyridinium hexafluorophosphate] |  | 114.0 | 106.7 |
| CCCCCCCC(=O)Oc1ccc(CC[n+]2c(C)cc(C)cc2C)cc1OC(=O)CCCCCCC.F[P-](F)(F)(F)(F)F [Lipid 7ACpy, 1-(3,4-dioctanoyloxyphenylethyl)-2,4,6-trimethylpyridinium hexafluorophosphate] |  | 134.1 | 127.3 |
| CCCCCCCCCCCCCCCCCC(=O)OCC(COC(=O)CCCCCCCCCCCCCCCCC)[n+]1c(C)cc(C)cc1C.F[B-](F)(F)F [Lipid 25AbS, 1-(1,3-Distearoyloxypropane-2yl)-2,4,6-trimethylpyridinium tetrafluoroborate] | 73 |  |  |
| CCCCCCCCCCCCCCCC(=O)Oc1ccc(CC[n+]2c(C)cc(C)cc2C)cc1OC(=O)CCCCCCCCCCCCCCC.F[P-](F)(F)(F)(F)F [Lipid 7APal, 1-(3,4-dipalmitoyloxyphenylethyl)-2,4,6-trimethylpyridinium hexafluorophosphate] |  | 140.0 | 124.1 |
| CCCCCCCC/C=C\CCCCCCCC(=O)OCC(C[n+]1c(C)cc(C)cc1C)OC(=O)CCCCCCC/C=C\CCCCCCCC.F[B-](F)(F)F (stereo not drawn) [Lipid 21AbO, 1-(2,3-Dioleoyloxypropyl)-2,4,6-trimethylpyridinium tetrafluoroborate] | 52 |  |  |
| CCCCCCCCCCCCCCCCCC(=O)OCC(COC(=O)CCCCCCCCCCCCCCCCC)[n+]1c(C)cc(C)cc1C.[O-][Cl+3]([O-])([O-])[O-] [Lipid 25AaS, 1-(1,3-Distearoyloxypropane-2-yl)-2,4,6-trimethylpyridinium perchlorate] | 70 |  |  |
| CCCCCCCCCCCCCC(=O)Oc1ccc(CC[n+]2c(C)cc(C)cc2C)cc1OC(=O)CCCCCCCCCCCCC.F[P-](F)(F)(F)(F)F [Lipid 7AMyr, 1-(3,4-dimyristoyloxyphenylethyl)-2,4,6-trimethylpyridinium hexafluorophosphate] |  | 141.2 | 125.8 |
| CCCCCCCCCCCCCCCCCC(=O)Oc1ccc(CC[n+]2c(C)cc(C)cc2C)cc1OC(=O)CCCCCCCCCCCCCCCCC.F[P-](F)(F)(F)(F)F [Lipid 7ASte, 1-(3,4-distearoyloxyphenylethyl)-2,4,6-trimethylpyridinium hexafluorophosphate] |  | 138.8 | 123.9 |
| CCCCCCCCCCCCCCCC(=O)OCC(C[n+]1c(-c2ccccc2)cc(-c2ccccc2)cc1-c1ccccc1)OC(=O)CCCCCCCCCCCCCCC.[O-][Cl+3]([O-])([O-])[O-] (stereo not drawn) [Lipid 21BaP, 1-(2,3-Dipalmitoyloxypropyl)-2,4,6-triphenylpyridinium perchlorate] | 134 |  |  |
| CCCCCCCCCCCCCCCCCC(=O)OCC(C[n+]1c(C)cc(C)cc1C)OC(=O)CCCCCCCCCCCCCCCCC.F[P-](F)(F)(F)(F)F (stereo not drawn) [Lipid 3ASte, 1-(2,3-distearoyloxypropyl)-2,4,6-trimethylpyridinium hexafluorophosphate] |  | 122.5 | 112.7 |
| CCCCCCCCCCCCCCCCCC(=O)OCC(C[n+]1c(C)cc(C)cc1C)OC(=O)CCCCCCCCCCCCCCCCC.[O-][Cl+3]([O-])([O-])[O-] (stereo not drawn) [Lipid 21AaS, 1-(2,3-Distearoyloxypropyl)-2,4,6-trimethylpyridinium perchlorate] | 110 |  |  |
